Data taken from patent publication EP2832348B1, “METHOD FOR DISSOLVING FLAVONOID COMPOUND, CARBON GLYCOSIDE COMPOUND, OR STILBENE COMPOUND AND METHOD FOR PREPARING AN INJECTION OR A POWDER FOR INJECTION” (Kunming Pharmaceutical Corp., priority 2012, dated 2013).
≈ marks a conversion by molar mass, not a printed value.

Tests used:
[1] = Dissolving the compound with solubilizer in heated, vacuum-stirred water for injection under nitrogen or argon gas (preparation tank); type: physicochemical; details: kept at 80 °C, nitrogen gas
Method: In view of this, the present invention provides a method for dissolving a carbon glycoside compound or a stilbene compound, characterized in that the method comprises the following steps: • heating water for injection to 80-98 °C, followed by stirring under vacuum condition at 30-80 °C, and then adding the carbon glycoside compound or the stilbene compound along with a solubilizer under the protection of nitrogen gas or argon gas to obtain a solution of said compounds; • wherein the solubilizer is one or a mixture of two or more of gastrodin, water-soluble cyclodextrin and ethanol, and wherein the water-soluble cyclodextrin is one or a mixture of two or more of methyl-β-cyclodextrin, thioether-β-cyclodextrin and sulfobutyl ether-β-cyclodextrin; and • wherein the mass ratio of the carbon glycoside compound or the stilbene compound to the solubilizer is 1:1-20.
Disclosed is a method for dissolving a flavonoid compound, a carbon glycoside compound or a stilbene compound, including: • mixing the flavonoid compound, the carbon glycoside compound or the stilbene compound with a solubilizer to obtain a reactant; and • heating water for injection to 80-98 °C, followed by stirring under vacuum conditions at 30-80 °C, and then adding the reactant under the protection of nitrogen gas or argon gas to obtain a solution of the reactant.
Considering the sensitivity to heat or light of the flavonoid compound, the carbon glycoside compound or the stilbene compound, a method is provided by heating water for injection to 80-98 °C to remove dissolved oxygen and other gases in water, which reduces the surface tension of water, increases the contact area of water with the flavonoid compound, the carbon glycoside compound or the stilbene compound, thus increasing the dissolution speed. Meanwhile, pre-heating the water for injection can effectively avoid degradation of the flavonoid compound, the carbon glycoside compound or the stilbene compound due to exposure to the dissolved oxygen, to eliminate unstable factors of the flavonoid compound, the carbon glycoside compound or the stilbene compound. The vacuum conditions can achieve further deoxygenation, facilitating the dissolution of the flavonoid compound, the carbon glycoside compound or the stilbene compound in water. Nitrogen gas or argon gas provides an inert atmosphere, which further reduces the surface tension of the materials, increases the contact area of the flavonoid compound, the carbon glycoside compound or the stilbene compound with water, and increases the dissolution speed.

[2] = Solubility of triptophenolide in aqueous solutions with different concentrations of gastrodin and/or water-soluble cyclodextrin; type: physicochemical; details: aqueous solution of solubilizer
Text: Table 1. Solubility of triptophenolide in aqueous solutions with different concentrations of gastrodin and/or water-soluble cyclodextrin

**Q.** What does the source list for OC[C@H]1O[C@@H](Oc2cc(/C=C/c3cc(O)cc(O)c3)ccc2O)[C@H](O)[C@@H](O)[C@@H]1O?
**A.** dissolved in (time) ([1]; Example 35: 5 g with Gastrodin 80 g in 1000 ml, water heated to 95 °C, vacuum stirring 10 minutes): about 5 minutes; dissolved in (time) ([1]; Example 36: 20 g with Gastrodin 200 g in 1000 ml, water heated to 95 °C, vacuum stirring 10 minutes): about 5 minutes; dissolved in (time) ([1]; Example 37: 10 g with Gastrodin 80 g in 1000 ml, water heated to 95 °C, vacuum stirring 10 minutes): about 5 minutes; dissolved in (time) ([1]; Example 38: 25 g with Gastrodin 80 g, Hydroxypropyl-β-cyclodextrin 30 g in 1000 ml, water heated to 95 °C, vacuum stirring 10 minutes): about 5 minutes; dissolved in (time) ([1]; Example 47: 5 g with Methyl-β-cyclodextrin 30 g in 1000 ml, water heated to 88 °C, vacuum stirring 40 minutes): about 5 minutes; dissolved in (time) ([1]; Example 51: 10 g with Methyl-β-cyclodextrin 30 g in 1000 ml, water heated to 95 °C, vacuum stirring 10 minutes): about 5 minutes; dissolved in (time) ([1]; Example 52: 10 g with Thioether-β-cyclodextrin 30 g in 1000 ml, water heated to 95 °C, vacuum stirring 10 minutes): about 5 minutes; dissolved in (time) ([1]; Example 55: 10 g with Methyl-β-cyclodextrin 50 g in 1000 ml, water heated to 95 °C, vacuum stirring 10 minutes): about 5 minutes; dissolved in (time) ([1]; Example 58: 20 g with Hydroxypropyl-β-cyclodextrin 50 g in 1000 ml, water heated to 95 °C, vacuum stirring 10 minutes): about 5 minutes; dissolved in (time) ([1]; Example 59: 20 g with Methyl-β-cyclodextrin 50 g in 1000 ml, water heated to 95 °C, vacuum stirring 10 minutes): about 5 minutes; dissolved in (time) ([1]; Example 61: 20 g with Sulfobutyl ether-β-cyclodextrin 50 g in 1000 ml, water heated to 95 °C, vacuum stirring 10 minutes): about 5 minutes; dissolved in (time) ([1]; Example 63: 5 g with Gastrodin 100 g in 1000 ml, water heated to 95 °C, vacuum stirring 10 minutes): about 5 minutes; dissolved in (time) ([1]; Example 65: 5 g with Gastrodin 100 g in 1000 ml, water heated to 95 °C, vacuum stirring 10 minutes): about 5 minutes; dissolved in (time) ([1]; Example 68: 50 g with Hydroxypropyl-β-cyclodextrin 80 g in 1000 ml, water heated to 95 °C, vacuum stirring 10 minutes): about 5 minutes; dissolved in (time) ([1]; Example 69: 50 g with Methyl-β-cyclodextrin 80 g in 1000 ml, water heated to 95 °C, vacuum stirring 10 minutes): about 5 minutes; dissolved in (time) ([1]; Example 70: 50 g with Thioether-β-cyclodextrin 80 g in 1000 ml, water heated to 95 °C, vacuum stirring 10 minutes): about 5 minutes; dissolved in (time) ([1]; Example 71: 50 g with Sulfobutyl ether-β-cyclodextrin 80 g (formula; text: hydroxypropyl-β-cyclodextrin) in 1000 ml, water heated to 95 °C, vacuum stirring 10 minutes): about 5 minutes; dissolved in (time) ([1]; Example 72: 50 g with Hydroxypropyl-β-cyclodextrin 80 g in 1000 ml, water heated to 95 °C, vacuum stirring 10 minutes): about 5 minutes; dissolved in (time) ([1]; Example 73: 50 g with Hydroxypropyl-β-cyclodextrin 80 g in 1000 ml, water heated to 95 °C, vacuum stirring 10 minutes): about 5 minutes; dissolved in (time) ([1]; Example 74: 5 g with Gastrodin 0.5 g in 1000 ml, water heated to 95 °C, vacuum stirring 10 minutes): about 5 minutes; dissolved in (time) ([1]; Example 80: 10 g with Hydroxypropyl-β-cyclodextrin 30 g in 1000 ml, water heated to 95 °C, vacuum stirring 10 minutes): about 5 minutes; solubility ([2]; aqueous with cosolvent or surfactant or cyclodextrin, Gastrodin concentration 1 %): 3.19 mg/mL (≈ 7.85 mM); solubility ([2]; aqueous with cosolvent or surfactant or cyclodextrin, Gastrodin concentration 3 %): 5.1 mg/mL (≈ 12.5 mM); solubility ([2]; aqueous with cosolvent or surfactant or cyclodextrin, Gastrodin concentration 5 %): 7.11 mg/mL (≈ 17.5 mM); solubility ([2]; aqueous with cosolvent or surfactant or cyclodextrin, Gastrodin concentration 8 %): 9.17 mg/mL (≈ 22.6 mM); solubility ([2]; aqueous with cosolvent or surfactant or cyclodextrin, Gastrodin concentration 10 %): 11.4 mg/mL (≈ 28.1 mM); solubility ([2]; aqueous with cosolvent or surfactant or cyclodextrin, Gastrodin concentration 15 %): 11.8 mg/mL (≈ 28.9 mM); solubility ([2]; aqueous with cosolvent or surfactant or cyclodextrin, Gastrodin concentration 25 %): 38.4 mg/mL (≈ 94.4 mM); solubility ([2]; aqueous with cosolvent or surfactant or cyclodextrin, Gastrodin concentration 30 %): 60.4 mg/mL (≈ 149 mM); solubility ([2]; aqueous with cosolvent or surfactant or cyclodextrin, Gastrodin concentration 35 %): 87.8 mg/mL (≈ 216 mM); solubility ([2]; aqueous with cosolvent or surfactant or cyclodextrin, Gastrodin concentration 40 %): 85.1 mg/mL (≈ 209 mM); solubility ([2]; aqueous with cosolvent or surfactant or cyclodextrin, Gastrodin concentration 45 %): 98 mg/mL (≈ 241 mM); solubility ([2]; aqueous with cosolvent or surfactant or cyclodextrin, Gastrodin concentration 50 %): 105 mg/mL (≈ 258 mM); solubility ([2]; aqueous with cosolvent or surfactant or cyclodextrin, Hydroxypropyl-β-cyclodextrin concentration 1 %): 4.8 mg/mL (≈ 11.8 mM); solubility ([2]; aqueous with cosolvent or surfactant or cyclodextrin, Hydroxypropyl-β-cyclodextrin concentration 3 %): 10.8 mg/mL (≈ 26.5 mM); solubility ([2]; aqueous with cosolvent or surfactant or cyclodextrin, Hydroxypropyl-β-cyclodextrin concentration 5 %): 20 mg/mL (≈ 49.3 mM); solubility ([2]; aqueous with cosolvent or surfactant or cyclodextrin, Hydroxypropyl-β-cyclodextrin concentration 8 %): 26.1 mg/mL (≈ 64.3 mM); solubility ([2]; aqueous with cosolvent or surfactant or cyclodextrin, Hydroxypropyl-β-cyclodextrin concentration 10 %): 34.1 mg/mL (≈ 83.9 mM); solubility ([2]; aqueous with cosolvent or surfactant or cyclodextrin, Hydroxypropyl-β-cyclodextrin concentration 15 %): 43.3 mg/mL (≈ 106 mM); solubility ([2]; aqueous with cosolvent or surfactant or cyclodextrin, Hydroxypropyl-β-cyclodextrin concentration 20 %): 59.2 mg/mL (≈ 146 mM); solubility ([2]; aqueous with cosolvent or surfactant or cyclodextrin, Hydroxypropyl-β-cyclodextrin concentration 25 %): 64.3 mg/mL (≈ 158 mM); solubility ([2]; aqueous with cosolvent or surfactant or cyclodextrin, Hydroxypropyl-β-cyclodextrin concentration 30 %): 116 mg/mL (≈ 286 mM); solubility ([2]; aqueous with cosolvent or surfactant or cyclodextrin, Hydroxypropyl-β-cyclodextrin concentration 35 %): 159 mg/mL (≈ 392 mM); solubility ([2]; aqueous with cosolvent or surfactant or cyclodextrin, Hydroxypropyl-β-cyclodextrin concentration 40 %): 189 mg/mL (≈ 464 mM); solubility ([2]; aqueous with cosolvent or surfactant or cyclodextrin, Hydroxypropyl-β-cyclodextrin concentration 45 %): 181 mg/mL (≈ 444 mM); solubility ([2]; aqueous with cosolvent or surfactant or cyclodextrin, Hydroxypropyl-β-cyclodextrin concentration 50 %): 183 mg/mL (≈ 451 mM); solubility ([2]; aqueous with cosolvent or surfactant or cyclodextrin, Solubilizer concentration: Gastrodin 0 %, Hydroxypropyl-β-cyclodextrin 3 %): 10.8 mg/mL (≈ 26.5 mM); solubility ([2]; aqueous with cosolvent or surfactant or cyclodextrin, Solubilizer concentration: Gastrodin 1 %, Hydroxypropyl-β-cyclodextrin 3 %): 14.8 mg/mL (≈ 36.4 mM); solubility ([2]; aqueous with cosolvent or surfactant or cyclodextrin, Solubilizer concentration: Gastrodin 3 %, Hydroxypropyl-β-cyclodextrin 3 %): 16.2 mg/mL (≈ 39.9 mM); solubility ([2]; aqueous with cosolvent or surfactant or cyclodextrin, Solubilizer concentration: Gastrodin 5 %, Hydroxypropyl-β-cyclodextrin 3 %): 22.6 mg/mL (≈ 55.6 mM); solubility ([2]; aqueous with cosolvent or surfactant or cyclodextrin, Solubilizer concentration: Gastrodin 8 %, Hydroxypropyl-β-cyclodextrin 3 %): 30.9 mg/mL (≈ 76.1 mM); solubility ([2]; aqueous with cosolvent or surfactant or cyclodextrin, Solubilizer concentration: Gastrodin 10 %, Hydroxypropyl-β-cyclodextrin 3 %): 39.8 mg/mL (≈ 98 mM); solubility ([2]; aqueous with cosolvent or surfactant or cyclodextrin, Solubilizer concentration: Gastrodin 15 %, Hydroxypropyl-β-cyclodextrin 3 %): 56 mg/mL (≈ 138 mM); solubility ([2]; aqueous with cosolvent or surfactant or cyclodextrin, Solubilizer concentration: Gastrodin 20 %, Hydroxypropyl-β-cyclodextrin 3 %): 107 mg/mL (≈ 264 mM); solubility ([2]; aqueous with cosolvent or surfactant or cyclodextrin, Solubilizer concentration: Gastrodin 25 %, Hydroxypropyl-β-cyclodextrin 3 %): 127 mg/mL (≈ 312 mM); solubility ([2]; aqueous with cosolvent or surfactant or cyclodextrin, Solubilizer concentration: Gastrodin 30 %, Hydroxypropyl-β-cyclodextrin 3 %): 181 mg/mL (≈ 446 mM); solubility ([2]; aqueous with cosolvent or surfactant or cyclodextrin, Solubilizer concentration: Gastrodin 35 %, Hydroxypropyl-β-cyclodextrin 3 %): 233 mg/mL (≈ 574 mM); solubility ([2]; aqueous with cosolvent or surfactant or cyclodextrin, Solubilizer concentration: Gastrodin 40 %, Hydroxypropyl-β-cyclodextrin 3 %): 197 mg/mL (≈ 485 mM); solubility ([2]; aqueous with cosolvent or surfactant or cyclodextrin, Solubilizer concentration: Gastrodin 45 %, Hydroxypropyl-β-cyclodextrin 3 %): 187 mg/mL (≈ 460 mM); solubility ([2]; aqueous with cosolvent or surfactant or cyclodextrin, Solubilizer concentration: Gastrodin 50 %, Hydroxypropyl-β-cyclodextrin 3 %): 188 mg/mL (≈ 463 mM); solubility ([2]; water, Gastrodin concentration 0 %): 1.75 mg/mL (≈ 4.31 mM); solubility ([2]; water, Hydroxypropyl-β-cyclodextrin concentration 0 %): 1.75 mg/mL (≈ 4.31 mM)
